Molecules are shown by their SMILES. A value given as a limit tells only on which side of the number the result lay.

One experiment concerns the target T1, human α4β7 integrin (Homo sapiens, UniProt P13612+P26010).
T1 construct: expressed in transfected cells; host or cells: K562 cells, stably transfected
T1 sequence (P13612 34-1032): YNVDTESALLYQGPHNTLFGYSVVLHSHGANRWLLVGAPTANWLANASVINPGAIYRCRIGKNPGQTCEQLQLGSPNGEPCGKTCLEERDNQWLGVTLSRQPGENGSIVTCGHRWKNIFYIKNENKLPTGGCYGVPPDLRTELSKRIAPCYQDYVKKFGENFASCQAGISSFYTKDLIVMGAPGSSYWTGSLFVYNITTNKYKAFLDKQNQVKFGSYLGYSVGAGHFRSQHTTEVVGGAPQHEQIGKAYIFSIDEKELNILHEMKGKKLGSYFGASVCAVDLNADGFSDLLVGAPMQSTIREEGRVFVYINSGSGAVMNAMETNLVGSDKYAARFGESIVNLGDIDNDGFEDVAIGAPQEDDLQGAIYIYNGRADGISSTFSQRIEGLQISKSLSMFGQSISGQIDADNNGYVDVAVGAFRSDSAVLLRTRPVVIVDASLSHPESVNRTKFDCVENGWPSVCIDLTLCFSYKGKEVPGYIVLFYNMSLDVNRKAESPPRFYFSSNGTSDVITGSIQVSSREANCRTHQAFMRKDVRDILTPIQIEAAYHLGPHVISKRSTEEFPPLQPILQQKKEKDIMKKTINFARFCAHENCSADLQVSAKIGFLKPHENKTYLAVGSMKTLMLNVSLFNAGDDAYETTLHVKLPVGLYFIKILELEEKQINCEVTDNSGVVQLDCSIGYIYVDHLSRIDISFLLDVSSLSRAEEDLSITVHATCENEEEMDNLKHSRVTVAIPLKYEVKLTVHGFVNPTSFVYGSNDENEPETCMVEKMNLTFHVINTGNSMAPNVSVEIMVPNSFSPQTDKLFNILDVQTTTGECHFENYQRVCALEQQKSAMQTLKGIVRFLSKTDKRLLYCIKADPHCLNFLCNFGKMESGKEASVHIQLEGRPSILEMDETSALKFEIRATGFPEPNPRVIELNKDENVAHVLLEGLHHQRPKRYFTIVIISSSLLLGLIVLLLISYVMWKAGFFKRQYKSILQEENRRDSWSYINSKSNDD
T1 sequence (P26010 20-798): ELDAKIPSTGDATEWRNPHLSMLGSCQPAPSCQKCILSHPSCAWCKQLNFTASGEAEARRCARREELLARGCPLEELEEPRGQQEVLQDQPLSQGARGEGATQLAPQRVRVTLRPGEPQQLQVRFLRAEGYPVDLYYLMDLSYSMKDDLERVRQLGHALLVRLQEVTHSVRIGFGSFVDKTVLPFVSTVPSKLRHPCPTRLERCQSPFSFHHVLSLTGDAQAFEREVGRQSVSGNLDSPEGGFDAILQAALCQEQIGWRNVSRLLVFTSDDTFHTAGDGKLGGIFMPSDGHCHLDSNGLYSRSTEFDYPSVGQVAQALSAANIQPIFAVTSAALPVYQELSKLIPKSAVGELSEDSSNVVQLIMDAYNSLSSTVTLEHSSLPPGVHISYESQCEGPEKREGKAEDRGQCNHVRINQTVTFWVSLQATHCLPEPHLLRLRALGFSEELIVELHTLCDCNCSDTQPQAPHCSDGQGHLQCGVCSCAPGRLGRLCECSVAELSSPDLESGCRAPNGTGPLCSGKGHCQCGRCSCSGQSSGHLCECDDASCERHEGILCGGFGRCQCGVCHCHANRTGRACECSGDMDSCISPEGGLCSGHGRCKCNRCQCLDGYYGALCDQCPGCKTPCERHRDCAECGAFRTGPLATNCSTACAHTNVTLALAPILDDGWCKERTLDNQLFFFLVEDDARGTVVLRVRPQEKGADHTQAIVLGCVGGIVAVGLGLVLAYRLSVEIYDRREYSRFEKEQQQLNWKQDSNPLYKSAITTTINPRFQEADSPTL
The experiment can be described thus: α4β7-K562 Cell Adhesion Assay (α4β7 Mediated Adhesion/MAdCAM-1). The experiment is classed as cell-based. The note with it: α4β7-K562 cell adhesion to hMAdCAM-1; read-out: α4β7 IC50. The essentials:
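Anti-FLAG plates coated 1 h at 4° C with FLAG-hMAdCAM-1 in PBS pH 7.4, 1% BSA, 1 mM Mn2+. Stably transfected K562 cells expressing human α4β7, labelled with CFDA-SE, adhered with compound 1 h at room temperature. After four washes, bound cells lysed in 0.1 M NaOH for fluorescence read-out.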

For a further experiment, the target named is T2, α4β1 (Homo sapiens, UniProt P05556+P13612).
T2 construct: Ramos Cell Adhesion Assay (α4β1 Mediated Adhesion/VCAM-1); endogenous in cells; host or cells: Ramos cells
Kind of experiment: Ramos Cell Adhesion Assay (α4β1 Mediated Adhesion/VCAM-1). The format is cell-based. The note with it: Ramos cell adhesion to hVCAM-1; read-out: α4β1 IC50. The method in brief: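 Plates coated overnight at 4° C with recombinant hVCAM-1 at 4.0 μg/mL, pH 9.0, then blocked in PBS/1% BSA. Calcein AM-labeled Ramos cells added with compounds and left to adhere 1 h at room temperature; after washing, cells lysed in 1 M Tris pH 8.0/1% SDS.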

T2 sequence (P05556 21-798, one chain of several): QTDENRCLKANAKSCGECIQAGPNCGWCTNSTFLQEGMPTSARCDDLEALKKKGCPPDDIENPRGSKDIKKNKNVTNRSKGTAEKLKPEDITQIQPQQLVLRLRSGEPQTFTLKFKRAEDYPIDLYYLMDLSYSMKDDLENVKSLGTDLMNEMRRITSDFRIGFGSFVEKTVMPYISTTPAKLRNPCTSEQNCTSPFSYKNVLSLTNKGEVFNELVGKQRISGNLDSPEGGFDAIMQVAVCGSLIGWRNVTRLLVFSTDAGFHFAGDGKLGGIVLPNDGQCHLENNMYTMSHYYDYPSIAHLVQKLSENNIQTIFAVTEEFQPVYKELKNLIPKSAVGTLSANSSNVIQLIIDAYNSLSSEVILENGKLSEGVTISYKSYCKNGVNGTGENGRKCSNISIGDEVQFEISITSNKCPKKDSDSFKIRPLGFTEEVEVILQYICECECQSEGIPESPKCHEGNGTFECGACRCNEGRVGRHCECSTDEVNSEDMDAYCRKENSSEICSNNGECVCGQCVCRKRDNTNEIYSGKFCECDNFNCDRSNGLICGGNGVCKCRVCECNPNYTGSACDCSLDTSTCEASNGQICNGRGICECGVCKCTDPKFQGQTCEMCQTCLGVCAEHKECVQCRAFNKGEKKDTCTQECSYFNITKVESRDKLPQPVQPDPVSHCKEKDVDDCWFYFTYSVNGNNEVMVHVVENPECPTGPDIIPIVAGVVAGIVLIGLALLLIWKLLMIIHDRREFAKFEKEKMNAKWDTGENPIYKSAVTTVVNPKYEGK

As a reminder, the IC50 is the concentration at which inhibition is half-maximal. As for `COc1cnn(C)c(=O)c1-c1ccc(C[C@H](NC(=O)C23CCC(CC2)CN3C(=O)CCc2ccco2)C(=O)O)cc1` [Cpd 115], the IC50 amounted to 94 nM at human α4β7 integrin and 63.5 nM on α4β1.

Regarding `COc1cnn(C)c(=O)c1-c1ccc(C[C@H](NC(=O)C2(N)CCOCC2)C(=O)O)cc1` [Cpd 116], the 50% inhibitory concentration (IC50) at human α4β7 integrin stood at 97 nM; on α4β1, 656 nM.

In the case of `COc1cnn(Cc2ccccc2)c(=O)c1-c1ccc(C[C@H](NC(=O)c2c(Cl)cccc2Cl)C(=O)O)cc1` [Cpd 117], the values for the half-maximal inhibitory concentration (IC50) on human α4β7 integrin and at α4β1 were 102 nM and 518 nM, respectively.

For the compound `COc1cnn(C)c(=O)c1-c1ccc(C[C@H](NC(=O)c2c(Cl)cccc2Cl)C(=O)OCCN2CCOCC2)cc1` [Cpd 118], the values for the 50% inhibitory concentration (IC50) at human α4β7 integrin and at α4β1 were 103 nM and 1290 nM, respectively.

Consider `COc1cnn(C)c(=O)c1-c1ccc(C[C@H](NC(=O)c2c(Cl)cccc2Cl)C(=O)NCCO)cc1` [Cpd 119], for which the results for the IC50 on human α4β7 integrin and on α4β1 were 105 nM and 3800 nM, respectively.

For `CCOC(=O)Cc1cnn(C)c(=O)c1-c1ccc(C[C@H](NC(=O)c2c(Cl)cccc2Cl)C(=O)O)cc1` [Cpd 121, (S)-2-(2,6-dichloro-benzoylamino)-3-[4-(5ethoxycarbonylmethyl-2-methyl-3-oxo-2,3-dihydro-pyridazin-4-yl)-phenyl]-propionic acid], the concentration for half-maximal inhibition (IC50) at human α4β7 integrin was 114 nM; on α4β1, > 5000 nM.

For `COc1cnn(C)c(=O)c1-c1ccc(C[C@H](NC(=O)C23CCC(CC2)CN3C(=O)CCc2cnc[nH]2)C(=O)O)cc1` [Cpd 122], the results for the half-inhibitory concentration (IC50) at human α4β7 integrin and on α4β1 were 118 nM and 142 nM, respectively.

For `COc1cnn(C)c(=O)c1-c1ccc(C[C@H](NC(=O)CC(C)C)C(=O)O)cc1` [Cpd 124], the figures for the half-inhibitory concentration (IC50) on human α4β7 integrin and on α4β1 were 119 nM and > 1000 nM, respectively.

As for `COCCC(=O)N1C2CCC(CC2)[C@H]1C(=O)N[C@@H](Cc1ccc(-c2c(OC)cnn(C)c2=O)cc1)C(=O)O` [Cpd 125], the IC50 at human α4β7 integrin was 123 nM; at α4β1, 112 nM.

In the case of `COc1cnn(C)c(=O)c1-c1ccc(C[C@H](NC(=O)C23CCC(CC2)CN3C(=O)OC(C)(C)C)C(=O)O)cc1` [Cpd 126], the figures for the 50% inhibitory concentration (IC50) on human α4β7 integrin and on α4β1 were 127 nM and 2460 nM, respectively.

As for `COc1cnn(C)c(=O)c1-c1ccc(C[C@H](NC(=O)[C@@H](O)C(C)C)C(=O)O)cc1` [Cpd 127], the figures for the half-inhibitory concentration (IC50) on human α4β7 integrin and at α4β1 were 133 nM and > 1000 nM, respectively.

As to `CN[C@H](C(=O)N[C@@H](Cc1ccc(-c2c(OC)cnn(CCN3CCOCC3)c2=O)cc1)C(=O)O)[C@@H](C)OCc1ccccc1` [Cpd 128], the IC50 at human α4β7 integrin came out at 138 nM; at α4β1 it was 1490 nM.

As for `COc1cnn(C)c(=O)c1-c1ccc(C[C@H](NC(=O)[C@H](O)C(C)C)C(=O)O)cc1` [Cpd 129], the 50% inhibitory concentration (IC50) at human α4β7 integrin is 141 nM; on α4β1, > 1000 nM.

For the compound `COc1ccc2cc(C(=O)N[C@@H](Cc3ccc(-c4c(OC)cnn(C)c4=O)cc3)C(=O)O)c(=O)oc2c1` [Cpd 130], the results for the concentration for half-maximal inhibition (IC50) on human α4β7 integrin and at α4β1 were 147 nM and > 1000 nM, respectively.

With `O=C(N[C@@H](Cc1ccc(-c2c(-n3nccc3-c3cccs3)cnn(CCO)c2=O)cc1)C(=O)O)c1c(Cl)cccc1Cl` [Cpd 131, (S)-2-(2,6-Dichloro-benzoylamino)-3-{4-[2-(2-hydroxy-ethyl)-3-oxo-5-(5-thiophen-2-yl-pyrazol-1-yl)-2,3-di hydro-pyridazin-4-yl]-phenyl}-propionic acid], the 50% inhibitory concentration (IC50) was 152 nM at human α4β7 integrin and > 5000 nM on α4β1.

For the compound `COc1cnn(C)c(=O)c1-c1ccc(C[C@H](NC(=O)C2(c3ccc(F)cc3)CCCC2)C(=O)O)cc1` [Cpd 132], the IC50 was 152 nM at human α4β7 integrin and > 5000 nM at α4β1.

As for `COc1cnn(C)c(=O)c1-c1ccc(CC(NC(=O)C2(C(=O)NC(Cc3ccc(-c4c(OC)cnn(C)c4=O)cc3)C(=O)O)CC2)C(=O)O)cc1` (stereo not drawn) [Cpd 133], the values for the IC50 on human α4β7 integrin and at α4β1 were 10 nM and 1280 nM, respectively.

`COc1cnn(C)c(=O)c1-c1ccc(C[C@H](NC(=O)C23CCC(CC2)CN3C)C(=O)O)cc1` [Cpd 135]: the IC50 was 165 nM at human α4β7 integrin and > 1000 nM at α4β1.

In the case of `COc1cnn(C)c(=O)c1-c1ccc(C[C@H](NC(=O)C2C(C)(C)C2(C)C)C(=O)O)cc1` [Cpd 136, (S)-3-[4-(5-Methoxy-2-methyl-3-oxo-2,3-dihydro-pyridazin-4-yl)-phenyl]-2-[(2,2,3,3-tetramethyl-cyclopropanecarbonyl)-amino]-propionic acid], the IC50 was 179 nM on human α4β7 integrin and 1160 nM at α4β1.

Take `COc1cnn(C)c(=O)c1-c1ccc(C[C@H](NC(=O)c2ccc(C(=O)O)cc2)C(=O)O)cc1` [Cpd 137]: the half-inhibitory concentration (IC50) stood at 200 nM on human α4β7 integrin and 962 nM on α4β1.

`COc1cnn(C)c(=O)c1-c1ccc(C[C@H](NC(=O)c2c(C)cc(C)nc2N)C(=O)O)cc1` [Cpd 138]: the figures for the IC50 on human α4β7 integrin and on α4β1 were 204 nM and 508 nM, respectively.

With `COc1cnn(C)c(=O)c1-c1ccc(C[C@H](NC(=O)C23CCC(CC2)CN3C(=O)CCC2CCNCC2)C(=O)O)cc1` [Cpd 139], the results for the 50% inhibitory concentration (IC50) at human α4β7 integrin and on α4β1 were 228 nM and 319 nM, respectively.

Take `CCOc1cnn(C(C)(C)C)c(=O)c1-c1ccc(C[C@H](NC(=O)c2c(Cl)cccc2Cl)C(=O)O)cc1` [Cpd 142]: the IC50 was 230 nM at human α4β7 integrin and > 1000 nM at α4β1.

Regarding `COc1cnn(C)c(=O)c1-c1ccc(C[C@H](NC(=O)C(=O)C(C)C)C(=O)O)cc1` [Cpd 143], the IC50 was 244 nM at human α4β7 integrin and > 1000 nM on α4β1.

For the compound `COc1cnn(C)c(=O)c1-c1ccc(C[C@H](NC(=O)c2cnoc2C)C(=O)O)cc1` [Cpd 147], the values for the half-maximal inhibitory concentration (IC50) on human α4β7 integrin and at α4β1 were 249 nM and > 5000 nM, respectively.

For the compound `Cn1ncc(-n2nccc2-c2cccs2)c(-c2ccc(C[C@H](NC(=O)c3c(Cl)cccc3Cl)C(=O)O)cc2)c1=O` [Cpd 148], the IC50 at human α4β7 integrin is 261 nM; on α4β1 it was > 5000 nM.

As to `CN(C)CCOc1cnn(C)c(=O)c1-c1ccc(C[C@H](NC(=O)c2c(Cl)cccc2Cl)C(=O)O)cc1` [Cpd 150], the results for the IC50 at human α4β7 integrin and on α4β1 were 271 nM and 154 nM, respectively.

With `Cn1ncc(CC(=O)O)c(-c2ccc(C[C@H](NC(=O)c3c(Cl)cccc3Cl)C(=O)O)cc2)c1=O` [Cpd 152], the concentration for half-maximal inhibition (IC50) on human α4β7 integrin is 282 nM; on α4β1, > 5000 nM.

For `COc1cnn(C)c(=O)c1-c1ccc(CC(NC(=O)C(NC(C)C)C(C)C)C(=O)O)cc1` (stereo not drawn) [Cpd 153, 2-(2-Isopropylamino-3-methyl-butyrylamino)-3-[4-(5-methoxy-2-methyl-3-oxo-2,3-dihydro-pyridazin-4-yl)-phenyl]-propionic acid], the figures for the 50% inhibitory concentration (IC50) on human α4β7 integrin and at α4β1 were 295 nM and 2050 nM, respectively.

On to `COc1cnn(CCN2CCOCC2)c(=O)c1-c1ccc(C[C@H](NC(=O)[C@@H](NC(=O)OC(C)(C)C)[C@@H](C)O)C(=O)O)cc1` [Cpd 154], for which the half-inhibitory concentration (IC50) is 330 nM at human α4β7 integrin and > 5000 nM at α4β1.

These data come from patent US20050192279A1, “Pyridazinones as antagonists of alpha4 integrins” (priority 2004, published 2005).
